The target of experiment [1] is T1, CD28-Ig (Homo sapiens, UniProt P10747). Kind of experiment: Isothermal titration calorimetry, binding to CD28-Ig in solution. Also on record: native leader and extracellular domain peptide of CD28 and CD80 were grafted onto a human IgG1 heavy chain Fc region; human IgG1 Fc (hinge/CH2/CH3); made in house; host or cells: CHO cells. The text has this: (§1) The solution binding properties of the hexameric and standard Ig fusion proteins of CD80 and CD86 were compared using isothermal titration calorimetry, essentially as described previously for other proteins [K. Johanson et. al., J. Biol. Chem, 270: 9459-9471 (1995), and references therein].
This lower affinity for CD28 than for CTLA4 is in agreement with other reports [P. S. Linsley et. al., Immunity 1: 793-801 (1994)].

The target of experiment [2] is T1, CD28-Ig. On the set-up: Ig fusion partner. The note with it: read-out: approximate Kd of soluble CD80-Ig binding to immobilized CD28-Ig; Linsley et al. 1991; cited from earlier work.
Experiment [3] concerns murine T-cell hybridoma cell lines expressing human CD28 (PCD28.1.s2.1, DCL27CD28wt.s2). Kind of experiment: IL-2 production by CD28 T-cell hybridomas (CTLL-2 bioassay). In kind it is cell-based. The note with it: for IL-2 response: cross-linked with GAH antibody, no CD3 antibody; for level of IL-2 response at near saturation: soluble protein 1 ug/ml (FIG. 20C). From the text: The CD80- and CD86-Igαtp proteins were compared to the corresponding CD80 and CD86-Ig proteins to determine their ability to stimulate cells expressing human CD28 using two murine T-cell hybridoma cell lines expressing human CD28, PCD28.1.s2.1 and DCL27CD28wt.s2. The PCD28.1.s2.1 cell line was described in Example 1, part 3. The DCL27CD28wt.s2 cell line was created by transfection of the DC27 cell line [F. Pages et al., Nature, 369:327-329 (1994); F. Pages et al., J. Biol. Chem., 271(16):9403-9409 (1996)] with the same CD28 expression vector used for the PCD28.1.s2.1 cells [D. Couez et al., Molecular Immunology, 31:47-57 (1994)]. These cell lines were examined for their ability to produce IL-2 in response to activation with CD80- and CD86-Ig in comparison with the corresponding Igαtp fusion proteins. 96-well plates were coated with or without a CD3 antibody together with the CD80 and CD86 fusion proteins. This was accomplished by first incubating the plates with a previously determined suboptimal concentration of hamster […] CD3 antibody (MAb 145-2C11, Boerhinger-Mannheim Biochemicals) for two hours at room temperature (RT) or with just buffer alone, washing the plates with PBS, adding goat anti-human Ig heavy chain (GAH-IgHc, Sigma Chemical Co.) for an additional two hours at RT, washing again and coating with different concentrations of the CD80 or CD86 fusion protein for 16-18 hours at 4° C., washing again, and finally blocking for 30 min. with 0.2% BSA-PBS. T cells (1×10^5/well) were added in 150 μl medium into duplicate wells. For comparison, the soluble fusion proteins and the 248.23.2 CD28 MAb (IgM) [A. Morretta, University of Genova, Italy] were added to non-coated wells. T cells were incubated in the wells for 24 hours at 37° C., and supernatants were collected and evaluated for IL-2 levels in a standard CTLL-2 bioassay [S. M. Gillis et al., J. Immunol., 120:2027 (1978)]. Briefly, 1×10^4 IL-2 dependent CTLL-2 cells (ATCC)/well in 75 μl medium were added to an equal volume of test supernatant and incubated for 24 hours at 37° C. The cells were pulsed with 10 μl of 5 mg/ml MTT (Sigma Chemical Co.) for 4 hours, and lysed with […] 10% SDS/0.01N HCl solution for 14-16 hours. OD570 readings were converted into ng/ml of IL-2 based on a standard curve generated by treating cells with known concentrations of IL-2.
IL-2 promoter activity and IL-2 levels were measured similarly to that described in parts A and B above, except that proliferation of the reader CTLL-2 cells was measured by ^3H-thymidine incorporation.

The target in the next experiment is T2, CTLA4-Ig (Homo sapiens, UniProt P16410, F162A).
T2 construct: junction spanning the end of the CTLA4 extracellular domain and the hinge region; human IgG1 Fc (hinge/CH2/CH3); made in house; host or cells: CHO cells (by 'in a similar manner' to CD28-Ig)
T2 sequence (P16410 38-162 F162A): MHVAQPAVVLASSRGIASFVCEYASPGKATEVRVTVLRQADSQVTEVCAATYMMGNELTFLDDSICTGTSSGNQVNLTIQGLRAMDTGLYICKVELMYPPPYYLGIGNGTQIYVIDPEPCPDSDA
Briefly: Isothermal titration calorimetry, binding to CTLA4-Ig in solution.
Text: as §1
The error in Kd's is about a factor of 2 and the error in molar binding ratio's is 10-20%. […] The molecular masses of CD80-Igαtp and CD86-Igαtp were estimated as 6× the mass of the respective Ig proteins plus 40,000 Da. contributed by the twelve tailpiece segments.

Setting [4] is: added directly to PC28.1.s2.1 cells in solution, CTLL-2 3H-thymidine incorporation (FIG. 20B).
Where [5] appears, read: soluble protein, absence of CD3 crosslinking.

We go through 3 substances from patent publication US20020147326A1, “Hexameric fusion proteins and uses therefor” (SmithKline Beecham Corporation, priority 1996, published 2002).

With “CD80-Ig: CD80 leader and extracellular domain grafted onto human IgG1 heavy chain Fc region; monomeric Ig fusion (Ig homodimer) [reference compound]”, in the experiment with CD28-Ig [1], the “interaction with CD28-Ig in solution by calorimetry” value (from here on “interaction with CD28-Ig”) is reported as “not detected”. Moreover, the dissociation constant (Kd) with CD28-Ig [2] was roughly 200 nM. In addition, the values for the IL-2 production result in experiment [3] (setting [4]) and in experiment [3] (setting [5]) were “no stimulation” and “no activity”, respectively. Moreover, the IL-2 response entry in experiment [3] is given as “did not give a response”.
For the substance “CD80-Igαtp: CD80 leader and extracellular domain linked to human IgG1 hinge/CH2/CH3 and terminating in human IgA1 tailpiece (αtp)”, the “ratio of Igαtp to Ig titration equivalence points (molar ratio)” value with CTLA4-Ig is “about 6”. Also, the “interaction with CD28-Ig” value with CD28-Ig [1] is “did not show detectable binding”. Besides, in experiment [3] (setting [4]), the IL-2 production entry was “dose dependent stimulation”. Also, in experiment [3], the IL-2 response entry is listed as “increased the IL-2 response” and the “level of IL-2 response at near saturation” value is “comparable to that observed for stimulation through cross-linking of CD3 with immobilized CD3 antibody”. For the same substance, the IL-2 production entry in experiment [3] (setting [5]) is “induced IL-2 production”.
Take “CD86-Igαtp: CD86 leader and extracellular domain linked to human IgG1 Fc and terminating in human IgA1 tailpiece (αtp)”: the “interaction with CD28-Ig” value with CD28-Ig [1] is listed as “did not show detectable binding”. Moreover, the IL-2 production entry in experiment [3] (setting [4]) was “dose dependent stimulation”. Besides, in experiment [3], the IL-2 response result is listed as “increased the IL-2 response” and the “level of IL-2 response at near saturation” value is given as “comparable to that observed for stimulation through cross-linking of CD3 with immobilized CD3 antibody”. For the same substance, the IL-2 production result in experiment [3] (setting [5]) was “induced IL-2 production”.
